Results taken from US20240002393A1, “SUBSTITUTED BENZO[f][l ,2,4JTRIAZOL0[4,3-a][l ,4J[…] GABA A GAMMA! POSITIVE ALLOSTERIC MODULATORS” (Hoffmann-La Roche Inc., priority 2020, published 2024).
Where “and” joins values, the source holds several entries; their conditions need not be identical. Equal entries are not always repeated.

Experiments:
[1] = target: human GABAA α5β2γ1 receptor (Homo sapiens (Human), UniProt P31644+Q8N1C3); test: Radioligand binding assay, [3H]RO7239181 competition, γ1-containing GABAA subtypes; details: HEK293F membranes, mean of two determinations
Procedure: The affinity of compounds at GABAA γ1 subunit-containing receptors was measured by competition for [^3H]RO7239181 (67.3 Ci/mmol; Roche) binding to membranes from HEK293F cells (ThermoFisher R79007) expressing human (transiently transfected) receptors of composition α5β2γ1, α2β2γ1, α1β2γ1. For better protein expression of the α2 subunit-containing receptors, the 28 amino acid long signal peptide (Met1 to Ala28) of the human GABAA α2 subunit was substituted by the 31 amino acid long signal peptide (Met1 to Ser31) of human GABAA α5 subunit.
(§1) Harvested pellets from HEK293F cells expressing the different GABAA receptor subtypes were resuspended in Mannitol Buffer pH 7.2-7.4 (Mannitol 0.29M, Triethylamine 10 mM, Acetic acid 10 mM, EDTA 1 mM plus protease inhibitors (20 tablets Complete, Roche Diagnostics Cat. No. 05 056 489 001 per liter)), washed two times and then resuspended at 1:10 to 1:15 dilution in the same buffer. Cell disruption was performed by stirring the suspension in a Parr vessel #4637 at 435 psi for 15 minutes, and then the suspensions were centrifuged at 1000×g for 15 minutes at 4° C. (Beckman Avanti J-HC; rotor JS)-4.2). The supernatant (S1) was transferred in a 21 Schott flask and the pellet (P1) was resuspended with Mannitol Buffer up to 175 ml. The resuspended pellet was transferred into a 250 ml Corning centrifugal beaker and centrifuged at 1500×g for 10 minutes at 4° C. (Beckman Avanti J-HC; rotor JS)-4.2). The supernatant (S1) was then transferred in the 21 Schott flask and the pellet was discarded. The supernatants (S1) were centrifuged in 500 ml Beckman polypropylene centrifugal beaker at 15,000×g for 30 minutes at 4° C. (Beckman Avanti J-20 XP; rotor JLA-10.500). The pellet (P2) was resuspended with Mannitol Buffer 1:1 and frozen at −80° C. The supernatant (S2) was centrifuged in 100 ml Beckman polypropylene centrifugal tubes at 48000×g for 50 minutes at […] (Beckman Avanti J-20 XP; rotor JA-18). The supernatant (S3) was discarded and the pellet (P3) was resuspended with 1:1 Mannitol Buffer. The P2 and P3 protein concentration was determined with the BIORAD Standard assay method with bovine serum albumin as standard and measured on the NANO-Drop 1000. The membrane suspension was aliquots (500 μl per tube) and stored at −80° C. until required.
(§2) Membrane homogenates were resuspended and polytronised (Polytron PT1200E Kinematica AG) in Potassium Phosphate 10 mM, KCl 100 mM binding buffer at pH 7.4 to a final assay concentration determined with a previous experiment.
Radioligand binding assays were carried out in a volume of 200 µL (96-well plates) which contained 100 μL of cell membranes, [^3H]RO7239181 at a concentration of 1.5 nM (α5β2γ1) or 20-30 nM (α1β2γ1, 2β2γ1) and the test compound in the range of [0.3-10000]×10^−9 M. Nonspecific binding was defined by 10×10^−6 (α5β2γ1) and 30×10^−6 M RO7235136 and typically represented less than 5% (α5β2γ1) and less than 20% (α1β2γ1, α2β2γ1) of the total binding. Assays were incubated to equilibrium for 1 hour at 4° C. and then, membranes were filtered onto unifilter (96-well white microplate with bonded GF/C filters preincubated 20-50 minutes in 0.3% Polyethylenimine) with a Filtermate 196 harvester (Packard BioScience) and washed 4 times with cold Potassium Phosphate 10 mM pH 7.4, KCl 100 mM binding buffer. After drying, filter-retained radioactivity was detected by liquid scintillation counting. K, values were calculated using Excel-Fit (Microsoft) and are the means of two determinations.
Representative test results, obtained by the above described assay measuring binding affinity to HEK293 cells expressing human (h) receptors, are shown in the Table 1.

[2] = target: human GABAA α1β2γ1 receptor (Homo sapiens (Human), UniProt P14867+Q8N1C3); test: as above; details: HEK293F membranes, [3H]RO7239181 20-30 nM, mean of two determinations
Procedure: (§3) The affinity of compounds at GABAA γ1 subunit-containing receptors was measured by competition for [^3H]RO7239181 (67.3 Ci/mmol; Roche) binding to membranes from HEK293F cells (ThermoFisher R79007) expressing human (transiently transfected) receptors of composition α5β2γ1, α2β2γ1, α1β2γ1.
as §1, §2
(§4) Assays were incubated to equilibrium for 1 hour at 4° C. and then, membranes were filtered onto unifilter (96-well white microplate with bonded GF/C filters preincubated 20-50 minutes in 0.3% Polyethylenimine) with a Filtermate 196 harvester (Packard BioScience) and washed 4 times with cold Potassium Phosphate 10 mM pH 7.4, KCl 100 mM binding buffer. After drying, filter-retained radioactivity was detected by liquid scintillation counting. K, values were calculated using Excel-Fit (Microsoft) and are the means of two determinations.

[3] = target: human GABAA α2β2γ1 receptor (Homo sapiens (Human), UniProt P47869+Q8N1C3); test: as above; details: for Ki: HEK293F membranes, [3H]RO7239181 20-30 nM, mean of two determinations, read-out: Ki h-GABAA α2β2γ1; for γ2/γ1 Selectivity Ratio: Ki α1β3γ2 (nM)/Ki α2β2γ1 (nM); for LogSel: Log[Ki α1β3γ2 (nM)/Ki α2β2γ1 (nM)]
Procedure: as §3, §1, §2, §4

[4] = target: human GABAA α1β3γ2 receptor (Homo sapiens (Human), UniProt P14867+P18507); test: Radioligand binding assay, [3H]Flumazenil competition, γ2-containing GABAA subtypes; details: HEK293F membranes, [3H]Flumazenil 1 nM, mean of two determinations; read-out: Ki h-GABAA α1β3γ2
Procedure: The affinity of compounds at GABAA γ2 subunit-containing receptors was measured by competition for [^3H]Flumazenil (81.1 Ci/mmol; Roche) binding to HEK293F cells expressing human (transiently transfected) receptors of composition α1β3γ2.
Harvested pellets from HEK293F cells expressing the different GABAA γ2 receptor subtypes were resuspended in Mannitol Buffer pH 7.2-7.4 and processed as described above for the cells expressing the GABAA γ1 subunit-containing receptors.
Assays were incubated to equilibrium for 1 hour at 4° C. and harvested onto GF/C uni-filters (Packard) by filtration using a Packard harvester and washing with ice-cold wash buffer (50 mM Tris; pH 7.5). After drying, filter-retained radioactivity was detected by liquid scintillation counting. Ki values were calculated using Exel-Fit (Microsoft) and are the means of two determinations.

With `C[C@@H]1N=C(c2ccccc2F)c2c(ccc(Br)c2Cl)-n2cnnc21` [Example 30, (4S)-8-bromo-7-chloro-6-(2-fluorophenyl)-4-methyl-4H-[1,2,4]triazolo[4,3-a][1,4]benzodiazepine] the Ki [1] was 2.6 nM, the Ki [2] was 65 nM and the Ki [3] was 43.6 nM. The “γ2/γ1 Selectivity Ratio” value [3] was 13.3, the LogSel [3] was 1.13 and 1.1 and the Ki [4] was 582 nM.

Compound `OC1N=C(c2c(F)cccc2F)c2c(ccc(Br)c2Cl)-n2cnnc21` (centres unmarked) [Example 31, 8-bromo-7-chloro-6-(2,6-difluorophenyl)-4H-[1,2,4]triazolo[4,3-a][1,4]benzodiazepin-4-ol] has a Ki [1] of 2.8 nM, a Ki [2] of 39.7 nM and a Ki [3] of 41 nM. The “γ2/γ1 Selectivity Ratio” value [3] was 17.3, the LogSel [3] was 1.24 and the Ki [4] was 707 nM.

`C[C@@H]1N=C(c2ccccc2F)c2c(ccc(Br)c2Cl)-n2c(-c3cccnn3)nnc21` [Example 32, (4S)-8-bromo-7-chloro-6-(2-fluorophenyl)-4-methyl-1-pyridazin-3-yl-4H-[1,2,4]triazolo[4,3-a][1,4]benzodiazepine] gave a Ki [1] of 1.3 nM, a Ki [2] of 33.3 nM and a Ki [3] of 10.5 nM. The “γ2/γ1 Selectivity Ratio” value [3] was 98.2, the LogSel [3] was 1.99 and the Ki [4] was 1030 nM.

Compound `OC1N=C(c2ccccc2F)c2c(ccc(Br)c2Cl)-n2c(-c3cccnn3)nnc21` (centres unmarked) [Example 35, 8-bromo-7-chloro-6-(2-fluorophenyl)-1-pyridazin-3-yl-4H-[1,2,4]triazolo[4,3-a][1,4]benzodiazepin-4-ol] has a Ki [1] of 8.4 nM, a Ki [2] of 640 nM and a Ki [3] of 78.6 nM. The “γ2/γ1 Selectivity Ratio” value [3] was 35.7, the LogSel [3] was 1.55 and the Ki [4] was 2800 nM.

`C[C@@H]1N=C(c2c(F)cccc2F)c2c(ccc(Br)c2Cl)-n2cnnc21` [Example 51, (4S)-8-bromo-7-chloro-6-(2,6-difluorophenyl)-4-methyl-4H-[1,2,4]triazolo[4,3-a][1,4]benzodiazepine] was tested, and the Ki [1] was 0.8 nM, the Ki [2] was 9 nM and the Ki [3] was 4.9 nM. The “γ2/γ1 Selectivity Ratio” value [3] was 79.5 and 80, the LogSel [3] was 1.9 and the Ki [4] was 393 nM.

With `C[C@@H]1N=C(c2c(F)cccc2F)c2c(ccc(Cl)c2Cl)-n2c(-c3ccncn3)nnc21` [Example 52, (4S)-7,8-dichloro-6-(2,6-difluorophenyl)-4-methyl-1-pyrimidin-4-yl-4H-[1,2,4]triazolo[4,3-a][1,4]benzodiazepine] the Ki [1] was 1.1 nM, the Ki [2] was 10.2 nM and the Ki [3] was 5.7 nM. The “γ2/γ1 Selectivity Ratio” value [3] was 112.4, the LogSel [3] was 2.05 and the Ki [4] was 638 nM.

`C[C@@H]1N=C(c2c(F)cccc2F)c2c(ccc(Cl)c2Cl)-n2c(-c3cnn(C)c3)nnc21` [Example 53, (4S)-7,8-dichloro-6-(2,6-difluorophenyl)-4-methyl-1-(1-methylpyrazol-4-yl)-4H-[1,2,4]triazolo[4,3-a][1,4]benzodiazepine] showed a Ki [1] of 1.1 nM, a Ki [2] of 14.4 nM and a Ki [3] of 3 nM. For the same compound, the “γ2/γ1 Selectivity Ratio” value [3] was 82.0, the LogSel [3] was 1.91 and the Ki [4] was 246 nM.

Work on `C[C@@H]1N=C(c2c(F)cccc2F)c2c(ccc(Cl)c2Cl)-n2c(-c3cccnn3)nnc21` [Example 56, (4S)-7,8-dichloro-6-(2,6-difluorophenyl)-4-methyl-1-pyridazin-3-yl-4H-[1,2,4]triazolo[4,3-a][1,4]benzodiazepine] yielded a Ki [1] of 0.8 nM, a Ki [2] of 3.8 nM and a Ki [3] of 4.6 nM. For the same compound, the “γ2/γ1 Selectivity Ratio” value [3] was 186.8, the LogSel [3] was 2.27 and the Ki [4] was 850 nM.

With `C[C@@H]1N=C(c2ncccc2F)c2c(ccc(Cl)c2Cl)-n2c(-c3cccnn3)nnc21` [Example 63, (4S)-7,8-dichloro-6-(3-fluoro-2-pyridyl)-4-methyl-1-pyridazin-3-yl-4H-[1,2,4]triazolo[4,3-a][1,4]benzodiazepine] the Ki [1] was 5.6 nM, the Ki [2] was 333 nM and the Ki [3] was 39.4 nM. For the same compound, the “γ2/γ1 Selectivity Ratio” value [3] was 103.5, the LogSel [3] was 2.02 and the Ki [4] was 4080 nM.

`COC[C@@H]1N=C(c2c(F)cccc2F)c2c(ccc(C(F)(F)F)c2Cl)-n2c(C)nnc21` [Example 105, (4R)-7-chloro-6-(2,6-difluorophenyl)-4-(methoxymethyl)-1-methyl-8-(trifluoromethyl)-4H-[1,2,4]triazolo[4,3-a][1,4]benzodiazepine] was tested, and the Ki [1] was 20.1 nM, the Ki [3] was 99.3 nM and the “γ2/γ1 Selectivity Ratio” value [3] was 73.9. The LogSel [3] was 1.87 and the Ki [4] was 7340 nM.

With `Cc1nnc2n1-c1ccc(C(F)(F)F)c(Cl)c1C(c1c(F)cccc1F)=N[C@H]2CO` [Example 106, [(4R)-7-chloro-6-(2,6-difluorophenyl)-1-methyl-8-(trifluoromethyl)-4H-[1,2,4]triazlo[4,3-a][1,4]benzodiazepin-4-yl]methanol] the Ki [1] was 4.3 nM, the Ki [3] was 71.3 nM and the “γ2/γ1 Selectivity Ratio” value [3] was 107.1. The LogSel [3] was 2.03 and the Ki [4] was 7640 nM.

In the case of `C[C@@H]1N=C(c2c(F)cccc2F)c2c(ccc(C(F)(F)F)c2Cl)-n2cnnc21` [Example 107, (4S)-7-chloro-6-(2,6-difluorophenyl)-4-methyl-8-(trifluoromethyl)-4H-[1,2,4]triazolo[4,3-a][1,4]benzodiazepine], the Ki [1] is reported as 3 nM, the Ki [3] is reported as 68.3 nM and the “γ2/γ1 Selectivity Ratio” value [3] is reported as 51.8. For the same compound, the LogSel [3] was 1.71 and the Ki [4] was 3530 nM.

In the case of `CCc1ccc2c(c1Cl)C(c1c(F)cccc1F)=N[C@@H](C)c1nnc(C)n1-2` [Example 109, (4S)-7-chloro-6-(2,6-difluorophenyl)-8-ethyl-1,4-dimethyl-4H-[1,2,4]triazolo[4,3-a][1,4]benzodiazepine], the Ki [1] is reported as 3.7 nM, the Ki [3] is reported as 65.8 nM and the “γ2/γ1 Selectivity Ratio” value [3] is reported as 11.5. For the same compound, the LogSel [3] was 1.06 and the Ki [4] was 754 nM.
